Target: human Kv7.2 (Homo sapiens (Human), UniProt O43526)
Test: SyncroPatch 384 electrophysiology, activation of Kv7.2 in CHO cells
Format: cell-based
Conditions: for EC50: CHO cells stably expressing human Kv7.2, potassium current at -90 mV repolarizing step, in presence of zinc pyrithione; for Emax: CHO
Experimental: The potency of Kv7 potentiators was determined using the SyncroPatch 384 (Nanion) high throughput electrophysiology platform.
CHO cells stably expressing either human Kv7.2, Kv7.4 or Kv7.5/7.3 under a constitutive CMV promoter were used for these studies. Cells were maintained in F12 Hams+1 mM L-glutamine (Hyclone) supplemented with 10% FBS (Sigma), 0.3×NEAA (Non-essential Gamino-acids) and 400 ug/ml G418 at 37° C. in 5% CO2. Cells were cultured in T-225 flasks (Nunc) for 2-3 days to reach 85-95% confluence prior to electrophysiological recording.
Earle's balanced salt solution (in mM): 135 NaCl, 5.4 KCl, 5 Glucose, 2 CaCl2, 1 MgCl2, 5 HEPES, pH 7.4. Seal enhancer solution (in mM): 90 NaCl, 3 KCl, 35 CaCl2, 10 MgCl2, 10 HEPES, pH 7.4. Extracellular recording solution (in mM): 71 NaCl, 70 NMDG, 13 KCl, 5 Glucose, 2 CaCl2, 1 MgCl2, 10 HEPES, pH 7.4. Intracellular recording solution (in mM): 130 KF, 20 KCl, 4 EGTA, 10 HEPES, 2 EDTA, 0.01 Escin, pH 7.2.
Cells were harvested for electrophysiological recording upon reaching appropriate confluence. Cells were first washed in DPBS (Hyclone, Cat #SH30028.03) and then 2 ml of Accutase (MP Biomedicals #1000449) was added at 28° C. until ˜90% of cells were suspended. F12 HAM's media+1 mM L-glutamine (Hyclone, SH30026.02) was then added to the flask to dilute the accutase. Cells were then triturated until a single cell suspension was achieved, a cell count was performed, and cells were centrifuged for 2 min. at 1,000 rpm. Media was then aspirated, and cells were resuspended in Earle's balanced salt solution to a concentration of 0.75×10^6 cells/ml and allowed to recover for 25 min at 10° C.
At the beginning of each assay, 20 μl of cell suspension was dispensed into each well of a multi-hole 384-well SyncroPatch chip by the onboard pipettor. Cell sealing was initiated, and seal enhancer solution was added to facilitate seal formation. Upon completion of sealing, cells were washed 3 times with extracellular recording solution and the assay voltage protocol was started. Human Kv7.2, Kv7.4 or Kv7.5/7.3 channels were evaluated using a voltage protocol in which cells were voltage-clamped at a holding potential of −60 mV. Potassium currents were continuously activated with a series of three voltage steps to −30 mV for 3 seconds, 40 mV for 1 second and −90 mV for 4 seconds with 12 seconds between successive voltage sweeps. Potassium currents were measured from the −90 mV repolarizing step. Baseline current was assessed for 3.5 minutes prior to the addition of 5.6 μM zinc pyrithione (1 μM for Kv7.4). Kv7.2, Kv7.4 or Kv7.5/7.3 current in the presence of zinc pyrithione was acquired over five minutes to allow channels to reach steady state activity prior to addition of test agents. Channel activity was monitored for three minutes preceding the addition of 30 μM ML-213 (3 minutes) to achieve maximum activation. 150 mM TEA with 10 μM XE-991 was applied for 2 minutes to measure the leak current during maximum inhibition of Kv7.2, Kv7.4 or Kv7.5/7.3 channels.
Data were collected on the SyncroPatch platform using PatchControl software (Nanion) and processed and analyzed using DataControl Software (Nanion). Percent activation was calculated from potassium current as follows: The average current for the 5 sweeps in the presence of zinc pyrithione immediately preceding test agent addition was taken as the ‘control’ data. Likewise, the average potassium current in the presence of test agents 5 sweeps immediately preceding addition of 30 μM ML-213 was determined for ‘drug’ data. The average potassium current 5 sweeps immediately prior to addition of 150 mM TEA+10 μM XE-991 was determined for ‘max activation’ data while average currents from 5 sweeps immediately following addition of TEA was determined for ‘max inhibition’ data. Percent activation for each of the 384-wells of a sealchip was calculated as ((‘drug’−‘max inhibition’)/(‘max activation’−‘max inhibition’))*100 with Pipeline Pilot (Accelrys). […]

[1] = Kv7.2 activation max %, relative to 30 μM ML-213 max activation

Compound | EC50 [µM] | Emax [1] [%] | Kv7.2 Emax [1] [%]
O=C(NCc1ccnc(-n2ccnc2)c1)N[C@@H]1C[C@H]1c1ccccc1 [Example 27, 1-[(2-imidazol-1-ylpyridin-4-yl)methyl]-3-[(1R,2S)-2-phenylcyclopropyl]urea] | 2.84 | 45 | 
O=C(NCc1ccnc(Cl)c1)N[C@@H]1C[C@H]1C1CCCCC1 (racemic) [Example 17, 1-[(2-chloropyridin-4-yl)methyl]-3-[rac-(1R,2S)-2-cyclohexylcyclopropyl]urea] | 1.76 | 61 | 
O=C(NCc1ccnc(Oc2ccccc2)c1)N[C@@H]1C[C@H]1c1ccccc1 [Example 34, 1-[(2-phenoxypyridin-4-yl)methyl]-3-[(1R,2S)-2-phenylcyclopropyl]urea] | 4.78 | 62 | 
O=C(NCc1ccnc(-n2ccc(C(F)(F)F)n2)c1)N[C@@H]1C[C@H]1c1ccccc1 [Example 39, 1-[(1R,2S)-2-phenylcyclopropyl]-3-[[2-[3-(trifluoromethyl)pyrazol-1-yl]pyridin-4-yl]methyl]urea] | 0.07 | 78 | 
O=C(NCc1ccnc(OC2COC2)c1)N[C@@H]1C[C@H]1c1ccccc1 [Example 16] | 0.96 | 57 | 
CC(C)c1nccc(CNC(=O)N[C@@H]2C[C@H]2C2CCCCC2)n1 (racemic) [Example 4, 1-[(2-propan-2-ylpyrimidin-4-yl)methyl]-3-[rac-(1R,2S)-2-cyclohexylcyclopropyl]urea] | 4.4 | 71 | 
O=C(NCc1ccnc(OCF)c1)N[C@@H]1C[C@H]1c1ccccc1 [Example 37] | 0.91 | 74 | 
O=C(NCc1ccnc(OC(F)(F)F)c1)N[C@@H]1C[C@H]1c1ccccc1 [Example 28, 1-[(1R,2S)-2-phenylcyclopropyl]-3-[[2-(trifluoromethoxy)pyridin-4-yl]methyl]urea] | 1.36 | 62 | 
O=C(NCc1ccnc(OC(F)F)c1)N[C@@H]1C[C@H]1C1CCCO1 (mixture of isomers) [Example 43, 1-[[2-(difluoromethoxy)pyridin-4-yl]methyl]-3-[rac-(1R,2R)-2-(oxolan-2-yl)cyclopropyl]urea] | 8.01 | 61 | 
N#Cc1cccc(CNC(=O)N[C@@H]2C[C@H]2c2ccccc2)n1 [Example 18, 1-[(6-cyanopyridin-2-yl)methyl]-3-[(1R,2S)-2-phenylcyclopropyl]urea] | 3.02 | 62 | 
O=C(NCc1ccnc(C2COC2)c1)N[C@@H]1C[C@H]1c1ccccc1 [Example 32] | 3.02 | 40 | 
CC(C)Oc1cc(CNC(=O)N[C@@H]2C[C@H]2c2ccccc2)ccn1 [Example 6, 1-[(1R,2S)-2-phenylcyclopropyl]-3-[(2-propan-2-yloxypyridin-4-yl)methyl]urea] | 0.66 | 64 | 
O=C(NCc1ccnc(-n2cnc(C(F)(F)F)c2)c1)N[C@@H]1C[C@H]1C1CCCCC1 (racemic) [Example 24, 1-[rac-(1R,2S)-2-cyclohexylcyclopropyl]-3-[[2-[4-(trifluoromethyl)imidazol-1-yl]pyridin-4-yl]methyl]urea] | 0.16 | 45 | 
O=C(NCc1ccnc(-n2cccn2)c1)N[C@@H]1C[C@H]1C1CCCCC1 (racemic) [Example 2, 1-[rac-(1R,2S)-2-cyclohexylcyclopropyl]-3-[(2-pyrazol-1-ylpyridin-4-yl)methyl]urea] | 0.57 | 84 | 
1-[(1S,2R)-2-cyclohexylcyclopropyl]-3-[(2-imidazol-1-ylpyridin-4-yl)methyl]urea [Example 15] | 1.57 |  | 56
C[C@H]1[C@H](NC(=O)NCc2ccnc(OC(F)F)c2)C1(F)F (racemic) [Example 42, 1-[[2-(difluoromethoxy)pyridin-4-yl]methyl]-3-[rac-(1R,3R)-2,2-difluoro-3-methylcyclopropyl]urea] | 1.03 | 58 | 
O=C(NCc1ccnc(C(F)F)c1)N[C@@H]1C[C@H]1c1ccccc1 [Example 21, 1-[[2-(difluoromethyl)pyridin-4-yl]methyl]-3-[(1R,2S)-2-phenylcyclopropyl]urea] | 3.2 | 72 | 
CC(F)(F)[C@@H]1C[C@H]1NC(=O)NCc1ccnc(OC(F)F)c1 (racemic) [Example 44, 1-[[2-(difluoromethoxy)pyridin-4-yl]methyl]-3-[rac-(1R,2R)-2-(1,1-difluoroethyl)cyclopropyl]urea] | 0.33 | 40 | 
O=C(NCc1cc(OCC(F)(F)F)ncn1)N[C@@H]1C[C@H]1C(F)(F)F (racemic) [Example 51, 1-[rac-(1R,2R)-2-(trifluoromethyl)cyclopropyl]-3-[[6-(2,2,2-trifluoroethoxy)pyrimidin-4-yl]methyl]urea] | 0.28 | 52 | 
O=C(NCc1ccnc(-n2cccn2)c1)N[C@@H]1C[C@H]1c1ccccc1 (racemic) [Example 12, 1-[(2-pyrazol-1-ylpyridin-4-yl)methyl]-3-[rac-(1R,2S)-2-phenylcyclopropyl]urea] | 0.67 | 69 | 
COc1cc(CNC(=O)N[C@@H]2C[C@H]2c2ccccc2)ccn1 (racemic) [Example 5, 1-[(2-methoxypyridin-4-yl)methyl]-3-[rac-(1R,2S)-2-phenylcyclopropyl]urea] | 3.75 | 44 | 
N#Cc1ccnc(CNC(=O)N[C@@H]2C[C@H]2c2ccccc2)c1 [Example 1, 1-[(4-cyanopyridin-2-yl)methyl]-3-[(1R,2S)-2-phenylcyclopropyl]urea] | 4.68 | 73 | 
O=C(NCc1ccnc(OC2CCOCC2)c1)N[C@@H]1C[C@H]1c1ccccc1 [Example 20, 1-[[2-(oxan-4-yloxy)pyridin-4-yl]methyl]-3-[(1R,2S)-2-phenylcyclopropyl]urea] | 5.93 | 58 | 
O=C(NCc1ccnc(OC2CCC2)c1)N[C@@H]1C[C@H]1c1ccccc1 [Example 25, 1-[(2-cyclobutyloxypyridin-4-yl)methyl]-3-[(1R,2S)-2-phenylcyclopropyl]urea] | 1.05 | 60 | 
COC[C@@H](Oc1cc(CNC(=O)N[C@@H]2C[C@H]2C(F)(F)F)ccn1)C(F)(F)F (mixture of isomers) [Example 53, 1-[[2-[(2R)-1,1,1-trifluoro-3-methoxypropan-2-yl]oxypyridin-4-yl]methyl]-3-[rac-(1R,2R)-2-(trifluoromethyl)cyclopropyl]urea] | 0.36 | 69 | 
O=C(NCc1cc(OC(F)F)ncn1)N[C@H]1C[C@@H]1C(F)(F)F [Example 52, 1-[[6-(difluoromethoxy)pyrimidin-4-yl]methyl]-3-[(1S,2S)-2-(trifluoromethyl)cyclopropyl]urea] | 1 | 43 | 
N#Cc1cc(CNC(=O)N[C@@H]2C[C@H]2c2ccccc2)ccn1 (racemic) [Example 8, 1-[(2-cyanopyridin-4-yl)methyl]-3-[rac-(1R,2S)-2-phenylcyclopropyl]urea] | 4.18 | 40 | 
C[C@@H]1C[C@H]1NC(=O)NCc1ccnc(OC(F)F)c1 (racemic) [Example 46, 1-[[2-(difluoromethoxy)pyridin-4-yl]methyl]-3-[rac-(1R,2R)-2-methylcyclopropyl]urea] | 0.9 | 51 | 
